Results taken from PubChem BioAssay AID200 (DTP/NCI, 2004).
Where “and” joins values, the source holds several entries; their conditions need not be identical. Identical values can stand only once. Toxic doses and inconclusive results are not listed. Where a SMILES comes first, the peptide text is derived from it. [ ]: non-standard residue; d: D form. The star is where a group is joined. Cbz = O=C(OCc1ccccc1)*; Nva = CCC[CH](N)C(=O)O

Test system: B6C3F1 mice, B16 melanoma ip, median survival T/C
Assay: NCI In Vivo Anticancer Drug Screen. Data for tumor model B16 Melanoma (intraperitoneal) in B6C3F1 mice
Conditions: endpoint: median survival time, higher = longer survival
How it was run: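 Values are T/C ratios: the measurement in treated animals divided by that in vehicle-treated controls, using survival or tumor size in mice carrying transplantable tumors.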

[1] = dose: 25.0 mg/kg/injection, schedule: Q01DX009 (ip), vehicle: saline
[2] = dose: 50.0 mg/kg/injection, schedule: Q01DX009 (ip), vehicle: saline
[3] = dose: 100.0 mg/kg/injection, schedule: Q01DX009 (ip), vehicle: saline
[4] = dose: 200.0 mg/kg/injection, schedule: Q01DX009 (ip), vehicle: saline
[5] = dose: 400.0 mg/kg/injection, schedule: Q01DX009 (ip), vehicle: saline
[6] = dose: 12.5 mg/kg/injection, schedule: Q01DX009 (ip), vehicle: saline with Tween-80
[7] = dose: 25.0 mg/kg/injection, schedule: Q01DX009 (ip), vehicle: saline with Tween-80
[8] = dose: 50.0 mg/kg/injection, schedule: Q01DX009 (ip), vehicle: saline with Tween-80
[9] = dose: 100.0 mg/kg/injection, schedule: Q01DX009 (ip), vehicle: saline with Tween-80
[10] = dose: 200.0 mg/kg/injection, schedule: Q01DX009 (ip), vehicle: saline with Tween-80
[11] = dose: 6.25 mg/kg/injection, schedule: Q01DX009 (ip), vehicle: Klucel (hydroxypropylcellulose) (HPC)
[12] = dose: 12.5 mg/kg/injection, schedule: Q01DX009 (ip), vehicle: Klucel (hydroxypropylcellulose) (HPC)
[13] = dose: 25.0 mg/kg/injection, schedule: Q01DX009 (ip), vehicle: Klucel (hydroxypropylcellulose) (HPC)
[14] = dose: 50.0 mg/kg/injection, schedule: Q01DX009 (ip), vehicle: Klucel (hydroxypropylcellulose) (HPC)
[15] = dose: 100.0 mg/kg/injection, schedule: Q01DX009 (ip), vehicle: Klucel (hydroxypropylcellulose) (HPC)
[16] = dose: 400.0 mg/kg/injection, schedule: Q01DX009 (ip), vehicle: saline with Tween-80
[17] = dose: 75.0 mg/kg/injection, schedule: Q01DX009 (ip), vehicle: saline

For `O=[N+]([O-])O.[Ga]`, the T/C (dose: 4.0 mg/kg/injection, schedule: Q01DX009 (ip), vehicle: saline) was 105 % of control, the T/C (dose: 4.0 mg/kg/injection, schedule: Q01DX009 (ip), vehicle: water) was 99 % of control and the T/C (dose: 8.0 mg/kg/injection, schedule: Q01DX009 (ip), vehicle: saline) was 98 % of control. The T/C (dose: 8.0 mg/kg/injection, schedule: Q01DX009 (ip), vehicle: water) was 95 % of control, the T/C (dose: 16.0 mg/kg/injection, schedule: Q01DX009 (ip), vehicle: saline) was 101 % of control and the T/C (dose: 16.0 mg/kg/injection, schedule: Q01DX009 (ip), vehicle: water) was 100 % of control. For the same compound, the T/C [1] was 101 % of control, the T/C (dose: 32.0 mg/kg/injection, schedule: Q01DX009 (ip), vehicle: saline) was 95 % of control and the T/C (dose: 32.0 mg/kg/injection, schedule: Q01DX009 (ip), vehicle: water) was 97 % of control. For the same compound, the T/C [2] was 100 % of control, the T/C (dose: 64.0 mg/kg/injection, schedule: Q01DX009 (ip), vehicle: saline) was 91 % of control and the T/C (dose: 64.0 mg/kg/injection, schedule: Q01DX009 (ip), vehicle: water) was 96 % of control.
In the case of `COC(=O)[C@@H]1c2cc3c(c(O)c2[C@@H](OC)C[C@@]1(C)O)C(=O)c1c(O)cc2c(c1C3=O)OC1O[C@@]2(C)[C@H](O)[C@@H](N(C)C)[C@@H]1O`, the T/C (dose: 12.5 mg/kg/injection, schedule: Q01DX009 (ip), vehicle: saline) is reported as 158 % of control, the T/C [1] is reported as 159 % of control and the T/C [2] is reported as 158 % of control.
`O=c1ncccn1[C@@H]1O[C@H](CO)[C@H](O)C1O` (some centres not stated) was tested, and the T/C [1] was 122 % of control, the T/C [2] was 116 % of control and 107 % of control and the T/C [3] was 122 % of control. The T/C [4] was 120 % of control and 122 % of control and the T/C [5] was 180 % of control.
With `CC(C)CC(NC(=O)OCc1ccccc1)C(=O)O` (configuration not stated) the T/C [6] was 108 % of control, the T/C [7] was 102 % of control and the T/C [8] was 102 % of control and 106 % of control. For the same compound, the T/C [9] was 112 % of control and 101 % of control and the T/C [10] was 105 % of control.
In the case of `COc1cc(-c2ccc(Nc3ccccc3C(=O)O)c(OC)c2)ccc1Nc1ccccc1C(=O)O`, the T/C (dose: 100.0 mg/kg/injection, schedule: Q01DX009 (ip), vehicle: suspension in saline) is reported as 94 % of control, the T/C (dose: 200.0 mg/kg/injection, schedule: Q01DX009 (ip), vehicle: suspension in saline) is reported as 99 % of control and the T/C (dose: 400.0 mg/kg/injection, schedule: Q01DX009 (ip), vehicle: suspension in saline) is reported as 98 % of control.
With `C=C(C)C(=O)N(C)C(C)C(=O)OC1CC(=O)N(C)c2cc(cc(OC)c2Cl)C(OC)C(C)=C/C=C/C(OC)C2(O)CC(OC(=O)N2)C(C)C2OC12C` (configuration not stated) the T/C (dose: 8.0 micrograms/kg/injection, schedule: Q01DX009 (ip), vehicle: saline) was 169 % of control, the T/C (dose: 16.0 micrograms/kg/injection, schedule: Q01DX009 (ip), vehicle: saline) was 182 % of control and the T/C (dose: 32.0 micrograms/kg/injection, schedule: Q01DX009 (ip), vehicle: saline) was 180 % of control.
In the case of `O=[Te]=O`, the T/C (dose: 3.12 mg/kg/injection, schedule: Q01DX009 (ip), vehicle: saline) is reported as 110 % of control and the T/C (dose: 6.25 mg/kg/injection, schedule: Q01DX009 (ip), vehicle: saline) is reported as 109 % of control.
`CC(C)(C)OC(=O)NC(CCCCNC(=O)C(F)(F)F)C(=O)O` (configuration not stated) was tested, and the T/C [11] was 109 % of control, the T/C [12] was 99 % of control and the T/C [13] was 89 % of control and 99 % of control. For the same compound, the T/C [14] was 88 % of control and 96 % of control and the T/C [15] was 96 % of control.
`CC(/C=C/C1OC(=O)C=CC1C)=C\C(C)C/C=C/C(C)=C/C(C)C(=O)C(C)C(O)C(C)C/C(C)=C/C(=O)O` (configuration not stated) was tested, and the T/C (dose: 12.5 micrograms/kg/injection, schedule: Q01DX009 (ip), vehicle: saline + alcohol) was 170 % of control and 184 % of control and the T/C (dose: 25.0 micrograms/kg/injection, schedule: Q01DX009 (ip), vehicle: saline + alcohol) was 176 % of control and 224 % of control.
In the case of `C[n+]1cccc(NC(=O)c2ccc(NC(=O)C34CCC(C(=O)Nc5ccc(C(=O)Nc6ccc[n+](C)c6)cc5)(CC3)CC4)cc2)c1`, the T/C (dose: 2.5 mg/kg/injection, schedule: Q01DX009 (ip), vehicle: saline with Tween-80) is reported as 114 % of control, the T/C (dose: 5.0 mg/kg/injection, schedule: Q01DX009 (ip), vehicle: saline with Tween-80) is reported as 111 % of control and 117 % of control and 118 % of control and the T/C (dose: 10.0 mg/kg/injection, schedule: Q01DX009 (ip), vehicle: saline with Tween-80) is reported as 119 % of control. The T/C (dose: 20.0 mg/kg/injection, schedule: Q01DX009 (ip), vehicle: saline with Tween-80) was 121 % of control and 99 % of control.
For `CCC(CC)COC(=O)c1ccccc1C(=O)OCC(CC)CC`, the T/C (dose: 3.12 mg/kg/injection, schedule: Q01DX009 (ip), vehicle: saline with Tween-80) was 98 % of control, the T/C (dose: 6.25 mg/kg/injection, schedule: Q01DX009 (ip), vehicle: saline with Tween-80) was 97 % of control and 106 % of control and the T/C [6] was 110 % of control and 90 % of control and 107 % of control. The T/C [7] was 91 % of control and 96 % of control and 103 % of control, the T/C [8] was 89 % of control and 96 % of control and 97 % of control and the T/C [9] was 93 % of control and 97 % of control. For the same compound, the T/C [10] was 106 % of control and the T/C [16] was 104 % of control.
In the case of `CCC(C)Nc1ccc(N)cc1` (configuration not stated), the T/C (dose: 0.09 mg/kg/injection, schedule: Q01DX009 (ip), vehicle: saline + Tween-80 + alcohol) is reported as 98 % of control, the T/C (dose: 0.18 mg/kg/injection, schedule: Q01DX009 (ip), vehicle: saline + Tween-80 + alcohol) is reported as 94 % of control and the T/C (dose: 0.37 mg/kg/injection, schedule: Q01DX009 (ip), vehicle: saline + Tween-80 + alcohol) is reported as 109 % of control. The T/C (dose: 0.75 mg/kg/injection, schedule: Q01DX009 (ip), vehicle: saline + Tween-80 + alcohol) was 109 % of control, the T/C (dose: 1.5 mg/kg/injection, schedule: Q01DX009 (ip), vehicle: Klucel (hydroxypropylcellulose) (HPC)) was 91 % of control and the T/C (dose: 1.5 mg/kg/injection, schedule: Q01DX009 (ip), vehicle: saline + Tween-80 + alcohol) was 113 % of control. For the same compound, the T/C (dose: 3.0 mg/kg/injection, schedule: Q01DX009 (ip), vehicle: Klucel (hydroxypropylcellulose) (HPC)) was 111 % of control, the T/C (dose: 3.0 mg/kg/injection, schedule: Q01DX009 (ip), vehicle: saline + Tween-80 + alcohol) was 97 % of control and the T/C (dose: 6.0 mg/kg/injection, schedule: Q01DX009 (ip), vehicle: Klucel (hydroxypropylcellulose) (HPC)) was 96 % of control. For the same compound, the T/C (dose: 12.0 mg/kg/injection, schedule: Q01DX009 (ip), vehicle: Klucel (hydroxypropylcellulose) (HPC)) was 89 % of control.
With `CCCC(NC(=O)OCc1ccccc1)C(=O)NC(CC(C)C)C(=O)O` (configuration not stated) (Cbz-[Nva]-Leu-OH; configuration not given here) the T/C [15] was 104 % of control, the T/C (dose: 200.0 mg/kg/injection, schedule: Q01DX009 (ip), vehicle: Klucel (hydroxypropylcellulose) (HPC)) was 104 % of control and the T/C (dose: 400.0 mg/kg/injection, schedule: Q01DX009 (ip), vehicle: Klucel (hydroxypropylcellulose) (HPC)) was 96 % of control.
`Cn1cc(C2NC(=O)c3ccccc3N2)c2ccccc21` (configuration not stated) was tested, and the T/C [13] was 109 % of control and 96 % of control, the T/C [14] was 115 % of control and 106 % of control and the T/C [15] was 123 % of control.
`CC1(C)N=C(N)N=C(N)N1c1cccc(CCCCc2cccc(N)c2)c1` was tested, and the T/C [11] was 103 % of control, the T/C [12] was 108 % of control and the T/C [13] was 114 % of control.
For `CCOC(=O)c1c(C)c(C(=O)OCC)n(C)c1C=O`, the T/C [9] was 95 % of control, the T/C [10] was 94 % of control and the T/C [16] was 92 % of control.
With `CC(SC(C)C(=O)N/N=C/c1ccc(C#N)cc1)C(=O)N/N=C\c1ccc(C#N)cc1` (configuration not stated) the T/C [8] was 92 % of control, the T/C [9] was 88 % of control and the T/C [10] was 87 % of control. The T/C [4] was 88 % of control.
For `NCc1ccc(O)c(O)c1`, the T/C (dose: 28.13 mg/kg/injection, schedule: Q03HX024 (ip), vehicle: saline) was 98 % of control, the T/C (dose: 56.25 mg/kg/injection, schedule: Q03HX024 (ip), vehicle: saline) was 107 % of control and the T/C [17] was 110 % of control. For the same compound, the T/C (dose: 225.0 mg/kg/injection, schedule: Q03HX024 (ip), vehicle: saline) was 124 % of control, the T/C (dose: 300.0 mg/kg/injection, schedule: Q01DX009 (ip), vehicle: saline) was 114 % of control and 117 % of control and the T/C [5] was 117 % of control and 118 % of control. The T/C (dose: 500.0 mg/kg/injection, schedule: Q01DX009 (ip), vehicle: saline) was 117 % of control and 91 % of control.
In the case of `Nc1nc(Cl)c2ncn(C3OC(CO)C(O)C3O)c2n1` (configuration not stated), the T/C [9] is reported as 98 % of control, the T/C [10] is reported as 100 % of control and the T/C [16] is reported as 101 % of control.
In the case of `NC(N)=N/N=C/c1ccc(Cl)cc1Cl`, the T/C [1] is reported as 100 % of control, the T/C [2] is reported as 89 % of control and the T/C [3] is reported as 95 % of control.
For `O=C(O)CNc1ccc(O)cc1`, the T/C [1] was 104 % of control, the T/C [2] was 105 % of control and the T/C [17] was 105 % of control. The T/C [3] was 112 % of control and 121 % of control, the T/C (dose: 150.0 mg/kg/injection, schedule: Q01DX009 (ip), vehicle: saline) was 105 % of control and the T/C [4] was 100 % of control and 101 % of control.
